Laboratory results published in US11078170B2 (Assembly Biosciences, Inc., priority 2017, dated 2021).

Tested on: HBV viral production from HepAD38 cells
Assay: Activity of test compounds on viral production from HepAD38 cells (viral load by qPCR of HBV core sequence in supernatant)
Type: cell-based
Settings: Hepatitis B virus, 120 h, 5 days incubation, HBV DNA in supernatant by qPCR, top concentration 10 μM, read-out: Viral Load EC50 Activity range
Method: Assay Measuring Activity of Test Compounds on Viral Production from HepAD38 Cells
HepAD38 cells grown in a T-150 flask (Corning, cat #: 430825) with Growth Medium (DMEM/F12 (1:1) (Hyclone, cat #: SH30023.02), 1×Pen/Strep (Invitrogen, cat #: 15140-122), 10% FBS (Tissue Culture Biologics, cat #: 101), 250 μg/mL G418 (Alfa Aesar, cat #: J62671), 1 μg/mL Tetracycline (Teknova, cat #: T3320)) were detached with 0.25% trypsin-EDTA (Invitrogen, cat #: 25200-056). Tetracycline-free treatment medium (15 mL DMEM/F12 (1:1) 1× Pen/step, with 2% FBS, Tet-system approved (Clontech, cat #: 631106) were then added to mix, transferred into a 50 ml conical tube (Falcon, cat #: 21008-918) and spun at 1300 rpm for 5 min. Pelleted cells were then re-suspended/washed with 50 mL of 1×DPBS (Invitrogen, cat #: 14190-136) 2 times and 50 mL treatment medium twice. HepAD38 cells were then re-suspended with 10 mL of treatment medium, syringed and counted. Wells of 96-well clear bottom TC plate (Corning, cat #: 3904) were seeded at 50,000 cells/well in 180 μL of treatment medium, and 20 μL of either 10% DMSO (Sigma, cat #: D4540) as controls or a 10× solution of test compounds in 10% DMSO in treatment media was added for a final compound concentration starting at 10 μM, and plates were incubated in 5% CO2 incubator at 37° C. for 5 days.
Subsequently viral load production was assayed by quantitative PCR (qPCR) of the HBV core sequence. PCR reaction mixture containing forward primers HBV-f 5′-CTGTGCCTTGGGTGGCTTT-3′, which is SEQ ID NO 1, (IDT DNA), Reverse primers HBV-r 5′-[…]-3′, which is SEQ ID NO 2 (IDT DNA), Fluorescent TaqMan™ Probes HBV-probe 5′-FAM/AGCTCCAAA/ZEN/[…]/3IABkFQ-3′ (IDT DNA), which is SEQ ID NO 3, 10 μL/well of PerfeCTa® qPCR ToughMix® (Quanta Biosciences, Cat #: 95114-05K), and 6 µL/well of DEPC water (Alfa Aesar, cat #: J62087) was prepared. Four μL of supernatant was added to 16 μL of the reaction mixture in a qPCR plate (Applied Biosytems, Cat #: 4309849), sealed with a film (Applied Biosystems, Cat #: 4311971), centrifuged for a few seconds, and subsequently run on an Applied Biosystems VIIA7. The PCR mixture was incubated at 45° C. for 5 min, then 95° C. for 10 min, followed by 40 cycles of 10 seconds at 95° C. and 20 seconds at 60° C. Viral load was quantified against known HBV DNA standards by using ViiA™ 7 Software. Viral load in the supernatant from wells with treated cells were compared against viral load in supernatant from DMSO control wells (≥3 per plate). Cell viability assay was performed with CellTiter-Glo Luminescent Cell Viability Assay (Promega, cat #: G7573) with modification. Mixed appropriate amount of CellTiter-Glo (CTG) 1×DPBS in a 1:1 ratio, added 100 uL of the mixture to each well followed completely removal of all supernatant in each well without touching cell surface. Incubated the plate at room temperature for 10 min on an orbital shaker, and then read the plate with a plate reader (TECAN M1000 or Envision). EC50 or CC50 values were calculated through curve-fitting of the four-parameter nonlinear-logistic-regression model (GraphPad Prism or Dotmatics). CC50 values were all >10 μM.

Row | SMILES | EC50
1 | COc1ccc(-c2ccc([C@@H]3C[C@H](C(=O)Nc4ccc(F)c(Cl)c4)N(C)S(=O)(=O)N3)s2)cc1 [HBV-CSU-240-ISO-II] | 1 to 5 µM
2 | CN1[C@@H](C(=O)Nc2ccc(F)c(Cl)c2)C[C@@H](c2cccc(Cl)c2)NS1(=O)=O [HBV-CSU-261-ISO-II, Cis-N-(3-Chloro-4-fluorophenyl)-5-(3-chlorophenyl)-2-methyl-1,2,6-thiadiazinane-3-carboxamide 1,1-dioxide] | > 5 µM
3 | O=C(Nc1ccc(F)c(Cl)c1)[C@@H]1C[C@H](c2nccs2)NS(=O)(=O)N1CCOC(F)(F)F [HBV-CSU-072-ISO-II, Cis-N-(3-Chloro-4-fluorophenyl)-5-(thiazol-2-yl)-2-(2-(trifluoromethoxy)ethyl)-1,2,6-thiadiazinane-3-carboxamide 1,1-dioxide] | < 1 µM
4 | CN1[C@@H](C(=O)Nc2ccc(F)c(Cl)c2)C[C@@H](c2ccc(-c3ccccc3)s2)NS1(=O)=O (relative stereo) [HBV-CSU-116-ISO-II, Cis-N-(3-chloro-4-fluorophenyl)-2-methyl-5-(5-phenylthiophen-2-yl)-1,2,6-thiadiazinane-3-carboxamide 1,1-dioxide] | 1 to 5 µM
5 | CN1[C@H](C(=O)Nc2ccc(F)c(Cl)c2)C[C@H](c2ccc(-c3ccc(NS(C)(=O)=O)cc3)s2)NS1(=O)=O [HBV-CSU-163-ISO-I, Cis-N-(3-chloro-4-fluorophenyl)-2-methyl-5-(5-(4-(methylsulfonamido)phenyl)thiophen-2-yl)-1,2,6-thiadiazinane-3-carboxamide 1,1-dioxide] | < 1 µM
6 | CN1[C@@H](C(=O)Nc2ccc(F)c(Cl)c2)C[C@@H](c2ccccc2)NS1(=O)=O [HBV-CSU-113-ISO-II, Cis-N-(3-chloro-4-fluorophenyl)-2-methyl-5-phenyl-1,2,6-thiadiazinane-3-carboxamide 1,1-dioxide] | > 5 µM
7 | O=C(Nc1ccc(F)c(Cl)c1)[C@@H]1C[C@H](c2nccs2)NS(=O)(=O)N1CCCN1CCOCC1 [HBV-CSU-103-ISO-II] | 1 to 5 µM
8 | CN1C(C(=O)Nc2ccc(F)c(Cl)c2)CC(c2ccc(Br)s2)NS1(=O)=O (centres unmarked) [HBV-CSU-114, 5-(5-Bromothiophen-2-yl)-N-(3-chloro-4-fluorophenyl)-2-methyl-1,2,6-thiadiazinane-3-carboxamide 1,1-dioxide] | < 1 µM
9 | CN1[C@@H](C(=O)Nc2ccc(F)c(Cl)c2)C[C@@H](c2ccc(Cc3ccccc3)s2)NS1(=O)=O [HBV-CSU-117-ISO-II, Cis-(5-benzylthiophen-2-yl)-N-(3-chloro-4-fluorophenyl)-2-methyl-1,2,6-thiadiazinane-3-carboxamide 1,1-dioxide] | 1 to 5 µM
10 | O=C(Nc1ccc(F)c(Cl)c1)C1CC(c2nccs2)NS(=O)(=O)N1CCCN1CCCC1 (stereo not drawn) [HBV-CSU-102, Cis-N-(3-Chloro-4-fluorophenyl)-2-(3-(pyrrolidin-1-yl)propyl)-5-(thiazol-2-yl)-1,2,6-thiadiazinane-3-carboxamide 1,1-dioxide] | > 5 µM
11 | CN1[C@H](C(=O)Nc2cccc(Br)c2)C[C@H](c2cccs2)NS1(=O)=O [HBV-CSU-017-ISO-I, Cis-N-(3-Bromophenyl)-2-methyl-5-(thiophen-2-yl)-1,2,6-thiadiazinane-3-carboxamide 1,1-dioxide] | < 1 µM
12 | [2H]C1C([2H])(c2ccc(-c3cn(C)cn3)s2)NS(=O)(=O)N(C)C1([2H])C(=O)Nc1ccc(F)c(Cl)c1 (stereo not drawn) [HBV-CSU-375, Cis-N-(3-Chloro-4-fluorophenyl)-2-methyl-5-(5-(1-methyl-1H-imidazol-4-yl)thiophen-2-yl)-1,2,6-thiadiazinane-3,4,5-d3-3-carboxamide 1,1-dioxide] | < 1 µM
13 | Cc1cnc(C2CC(C(=O)Nc3ccc(F)c(Cl)c3)N(C)S(=O)(=O)N2)s1 (centres unmarked) | < 1 µM
14 | CN1C(C(=O)Nc2ccc(F)c(Cl)c2)CC(c2cccc(C(F)(F)F)c2)NS1(=O)=O (stereo not drawn) [HBV-CSU-259, Cis-N-(3-chloro-4-fluorophenyl)-2-methyl-5-(3-(trifluoromethyl)phenyl)-1,2,6-thiadiazinane-3-carboxamide 1,1-dioxide] | < 1 µM
15 | C#CCCN1[C@H](C(=O)Nc2ccc(F)c(Cl)c2)C[C@H](c2nccs2)NS1(=O)=O [HBV-CSU-090-ISO-I, Cis-2-(But-3-yn-1-yl)-N-(3-chloro-4-fluorophenyl)-5-(thiazol-2-yl)-1,2,6-thiadiazinane-3-carboxamide 1,1-dioxide] | < 1 µM
16 | CC(C)n1cc(-c2csc([C@@H]3C[C@H](C(=O)Nc4ccc(F)c(Cl)c4)N(C)S(=O)(=O)N3)c2)cn1 [HBV-CSU-295-ISO-II, Cis-N-(3-chloro-4-fluorophenyl)-5-(4-(1-isopropyl-1H-pyrazol-4-yl)thiophen-2-yl)-2-methyl-1,2,6-thiadiazinane-3-carboxamide 1,1-dioxide] | 1 to 5 µM
17 | CN1[C@@H](C(=O)Nc2ccc(F)c(Cl)c2)C[C@@H](c2ncc(-c3cncs3)s2)NS1(=O)=O [HBV-CSU-278-ISO-II, Cis-5-([5,5′-Bithiazol]-2-yl)-N-(3-chloro-4-fluorophenyl)-2-methyl-1,2,6-thiadiazinane-3-carboxamide 1,1-dioxide] | > 5 µM
18 | CN1[C@@H](C(=O)Nc2ccc(F)c(Cl)c2)C[C@@H](c2ccc(C(F)(F)F)cc2)NS1(=O)=O (stereo in doubt) [HBV-CSU-217-ISO-II, Cis-N-(3-Chloro-4-fluorophenyl)-2-methyl-5-(4-(trifluoromethyl)phenyl)-1,2,6-thiadiazinane-3-carboxamide 1,1-dioxide] | < 1 µM
19 | CN(C)CCCOc1ccc([C@@H]2C[C@H](C(=O)Nc3ccc(F)c(Cl)c3)N(C)S(=O)(=O)N2)cc1 [HBV-CSU-208-ISO-I, Cis-N-(3-chloro-4-fluorophenyl)-5-(4-(3-(dimethylamino)propoxy)phenyl)-2-methyl-1,2,6-thiadiazinane-3-carboxamide 1,1-dioxide] | > 5 µM
20 | [2H]C1C([2H])(c2ccc(-c3cn(C([2H])([2H])[2H])cn3)s2)NS(=O)(=O)N(C([2H])([2H])[2H])C1([2H])C(=O)Nc1ccc(F)c(Cl)c1 (stereo not drawn) [HBV-CSU-378, Cis-N-(3-chloro-4-fluorophenyl)-2-(methyl-d3)-5-(5-(1-(methyl-d3)-1H-imidazol-4-yl)thiophen-2-yl)-1,2,6-thiadiazinane-3,4,5-d3-3-carboxamide 1,1-dioxide] | < 1 µM
21 | CN1[C@H](C(=O)Nc2ccc(F)c(Cl)c2)C[C@H](c2ccc(-c3ccc(C#N)c(F)c3)s2)NS1(=O)=O [HBV-CSU-156-ISO-I, Cis-N-(3-chloro-4-fluorophenyl)-5-(5-(4-cyano-3-fluorophenyl)thiophen-2-yl)-2-methyl-1,2,6-thiadiazinane-3-carboxamide 1,1-dioxide] | < 1 µM
22 | Cc1c(-c2csc([C@H]3C[C@@H](C(=O)Nc4ccc(F)c(Cl)c4)N(C)S(=O)(=O)N3)c2)cnn1C [HBV-CSU-315-ISO-I, Cis-N-(3-chloro-4-fluorophenyl)-5-(4-(1,5-dimethyl-1H-pyrazol-4-yl)thiophen-2-yl)-2-methyl-1,2,6-thiadiazinane-3-carboxamide 1,1-dioxide] | < 1 µM
23 | CSCCN1[C@@H](C(=O)Nc2ccc(F)c(Cl)c2)C[C@@H](c2nccs2)NS1(=O)=O [HBV-CSU-109-ISO-I, Cis-N-(3-Chloro-4-fluorophenyl)-2-(2-(methylthio)ethyl)-5-(thiazol-2-yl)-1,2,6-thiadiazinane-3-carboxamide 1,1-dioxide] | > 5 µM
